Results on two molecules are retold here after US8008303B2, “Biphenyl derivatives and their use in treating hepatitis C” (AstraZeneca AB, priority 2005, dated 2011).

Data set [1] has as its system HCV replicon cells Huh 9B. Type of data set: cell-based. The conditions noted are these: concentration reducing total cell area by 50% relative to DMSO controls; methylene blue, absorbance 620 nm; 72 h incubation.
Data set [2] concerns HCV replicon cells Huh 9B. As to the kind of experiment: HCV replicon assay (luciferase readout). Type of data set: cell-based. The conditions noted are these: Hepatitis C virus, 72 h, concentration reducing replicon level (luciferase activity) by 50% vs untreated cell control; 72 h incubation. The method, boiled down: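 Compounds, made up at twice final strength (final DMSO 1%), were added to subgenomic replicon cells one day after plating. Incubation then ran 72 h at 37 °C, 5% CO2, without G418. Replication was quantified as firefly luciferase luminescence in lysed cells, with cytotoxicity assessed on a duplicate clear plate.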
Background: In antiviral work, replicon cells carry a viral genome segment that copies itself.

The structures appear in SMILES notation.

For orientation: IC50 means the concentration needed to halve the response being measured. Low values mean higher potency, high ones lower potency. Consider `CS(=O)(=O)N1CCN(Cc2ccc(NC(=O)c3ccc(-c4cc(NC(=O)[C@@H]5CCN5C(=O)O)ccc4OC(F)(F)F)cc3)cc2)CC1` [Example 241, (S)-2-{4′-[4-(4-Methanesulfonyl-piperazin-1-ylmethyl)-phenylcarbamoyl]-6-trifluoromethoxy-biphenyl-3-ylcarbamoyl}-azetidine-1-carboxylic acid], for which the TD50 result in data set [1] is reported as “* (* < 50 μM)”. Further, the IC50 in data set [2] was less than 1000 nM.
Turning to `Cc1ccc(C(=O)Nc2ccc(N3CCOCC3)cc2)cc1-c1ccc(CNCc2cccc(Cl)c2)cc1` [Example 96, 4′-[(3-Chloro-benzylamino)-methyl]-6-methyl-biphenyl-3-carboxylic acid (4-morpholin-4-yl-phenyl)-amide], in data set [1], the TD50 result is on record as “** (** > 50 μM)”. Moreover, the IC50 in data set [2] lay within 1000 to 5000 nM.
